Results on 38 compounds are retold here after patent US9732075B2, “Benzimidazole-proline derivatives” (IDORSIA PHARMACEUTICALS LTD, priority 2012, dated 2017).

The structures appear in SMILES notation.

By IC50 is commonly meant the concentration at which inhibition is half-maximal.

One test concerns the target human orexin-1 receptor (Homo sapiens (Human), UniProt O43613). Kind of test: In vitro assay: intracellular calcium measurements (FLIPR), antagonistic activity. It is filed as cell-based. To be noted: CHO cells expressing human orexin-1 receptor, orexin-A agonist, geometric mean, read-out: IC50 Ox1. An outline of the steps:
(§1)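 Orexin-A-evoked calcium rise (3 nM final, roughly EC70) was recorded with fluo-4 in recombinant CHO cells, human receptor subtype 1 or 2.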
A general note: Calcium flux is commonly read through the fluorescence of an indicator in the cells.

In another test the target is human orexin-2 receptor (Homo sapiens (Human), UniProt O43614). The test is described as above. It is filed as cell-based. The settings on record: CHO cells expressing human orexin-2 receptor, orexin-A agonist, geometric mean, read-out: IC50 Ox2. An outline of the steps:
as §1

Sequence of human orexin-2 receptor (O43614 whole entry): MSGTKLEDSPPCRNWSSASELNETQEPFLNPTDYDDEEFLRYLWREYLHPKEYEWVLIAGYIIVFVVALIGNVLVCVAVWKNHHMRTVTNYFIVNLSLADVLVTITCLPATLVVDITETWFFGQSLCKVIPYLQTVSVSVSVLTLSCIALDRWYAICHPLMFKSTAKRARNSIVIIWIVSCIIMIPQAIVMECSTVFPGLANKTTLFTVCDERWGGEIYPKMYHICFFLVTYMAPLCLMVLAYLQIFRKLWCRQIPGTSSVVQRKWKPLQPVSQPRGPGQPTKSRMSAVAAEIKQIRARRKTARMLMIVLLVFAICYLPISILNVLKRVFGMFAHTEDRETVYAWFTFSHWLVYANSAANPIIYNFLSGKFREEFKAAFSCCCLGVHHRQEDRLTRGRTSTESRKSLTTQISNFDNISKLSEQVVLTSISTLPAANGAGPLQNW
Sequence of human orexin-1 receptor (O43613 whole entry): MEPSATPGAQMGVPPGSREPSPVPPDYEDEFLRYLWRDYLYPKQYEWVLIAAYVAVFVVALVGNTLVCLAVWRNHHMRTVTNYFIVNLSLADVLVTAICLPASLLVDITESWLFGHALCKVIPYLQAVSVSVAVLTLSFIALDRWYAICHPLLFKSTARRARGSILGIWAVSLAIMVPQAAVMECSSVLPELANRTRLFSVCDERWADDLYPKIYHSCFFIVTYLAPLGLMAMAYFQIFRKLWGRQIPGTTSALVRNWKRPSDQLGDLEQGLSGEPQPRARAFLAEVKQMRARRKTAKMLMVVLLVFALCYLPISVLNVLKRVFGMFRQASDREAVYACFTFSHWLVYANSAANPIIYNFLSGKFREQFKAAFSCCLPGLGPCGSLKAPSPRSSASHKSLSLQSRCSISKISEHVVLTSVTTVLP

`C=C1CC(c2nc3c(C)cccc3[nH]2)N(C(=O)c2cc(C)sc2-c2ccc(C)c(C)c2)C1` (stereo not shown) [Ex. 6.79]: the IC50 at human orexin-1 receptor stood at 2 nM; on human orexin-2 receptor, 4 nM.
Regarding `Cc1ccc(C(=O)N2CC[C@H](C)[C@H]2c2nc3cc(C)c(C)cc3[nH]2)c(-n2nccn2)c1` [Ex. 4.82], the IC50 came out at 4 nM at human orexin-1 receptor and 32 nM at human orexin-2 receptor.
Consider `Cc1ccc(-c2ccc(F)cc2C)c(C(=O)N2CCC[C@@]2(C)c2nc3cc(C(F)(F)F)ccc3[nH]2)c1` [Ex. 5.181], for which the IC50 came to 385 nM at human orexin-1 receptor and 556 nM on human orexin-2 receptor.
The matching figures for `CCn1c([C@]2(C)CCCN2C(=O)c2cc(C)ccc2-c2ccc(C)cc2)nc2cc(C)c(C)cc21` [Ex. 7.38]: 8 nM and 30 nM.
In the same order, the values of `COc1ccc(-n2nccn2)c(C(=O)N2CCC[C@@]2(C)c2nc3cc(C(F)(F)F)c(Cl)cc3[nH]2)c1F` [Ex. 5.146] are 15 nM and 43 nM.
Consider `Cc1nc(C(=O)N2CCCC2c2nc3cc(Br)ccc3[nH]2)c(-c2cccc(Cl)c2)s1` (stereo not shown) [Ex. 1.93], for which the IC50 at human orexin-1 receptor is 102 nM; at human orexin-2 receptor it was 458 nM.
The matching figures for `Cc1c(Cl)ccc2[nH]c([C@@H]3[C@@H](C)CCN3C(=O)c3cc(F)ccc3-c3ncccn3)nc12` [Ex. 4.175]: 14 nM and 249 nM.
On to `Cc1ccc(-n2nccn2)c(C(=O)N2CCC[C@@]2(C)c2nc3c(C)cc(C)cc3[nH]2)c1` [Ex. 5.16], for which the IC50 at human orexin-1 receptor came to 16 nM; at human orexin-2 receptor, 18 nM.
As to `C=C1C[C@@H](c2nc3ccccc3[nH]2)N(C(=O)c2nc(C)sc2-c2cccc(Cl)c2)C1` [Ex. 6.43], the IC50 at human orexin-1 receptor was determined as 368 nM; at human orexin-2 receptor, 62 nM.
The matching figures for `COc1ccc(-n2nccn2)c(C(=O)N2C[C@H](OC)C[C@H]2c2nc3ccc(Cl)c(C)c3[nH]2)c1F` [Ex. 3.11]: 6 nM and 9 nM.
For `Cc1ccc(C(=O)N2CCC[C@@]2(C)c2nc3cc(OC(F)(F)F)ccc3[nH]2)c(-c2cccnc2)c1` [Ex. 5.241], the IC50 is 54 nM on human orexin-1 receptor and 1000 nM on human orexin-2 receptor.
Regarding `Cc1ccc(-n2nccn2)c(C(=O)N2CCC[C@@]2(C)c2nc3cc(C(F)(F)F)c(Cl)cc3[nH]2)c1` [Ex. 5.24], the figures for the IC50 on human orexin-1 receptor and at human orexin-2 receptor were 2 nM and 9 nM, respectively.
Regarding `Cc1nc(C(=O)N2CC[C@H](C)[C@H]2c2nc3c(C)c(Cl)ccc3[nH]2)c(-c2ccc(Cl)cc2)s1` [Ex. 4.63], the values for the half-inhibitory concentration (IC50) on human orexin-1 receptor and on human orexin-2 receptor were 0.8 nM and 122 nM, respectively.
In the same order, the values of `C=C1C[C@@H](c2nc3cc(OC)ccc3[nH]2)N(C(=O)c2nc(C)sc2-c2ccccc2)C1` [Ex. 6.3] are 243 nM and 18 nM.
Turning to `Cc1nc(C(=O)N2CC[C@H](C)[C@H]2c2nc3c(Cl)cccc3[nH]2)c(-c2ccc(C)c(C)c2)s1` [Ex. 4.125], the IC50 stood at 1 nM at human orexin-1 receptor and 81 nM at human orexin-2 receptor.
On to `Cc1cc(C)c2nc([C@@H]3[C@@H](C)CCN3C(=O)c3nc(C)sc3-c3cccc(Cl)c3)[nH]c2c1` [Ex. 4.16], for which the IC50 at human orexin-1 receptor is 1 nM; at human orexin-2 receptor, 250 nM.
On to `Cc1ccc(-c2sc(C)nc2C(=O)N2CC[C@H](C)[C@H]2c2nc3cc(C(F)(F)F)ccc3[nH]2)cc1` [Ex. 4.140], for which the IC50 worked out at 7 nM on human orexin-1 receptor and 2170 nM at human orexin-2 receptor.
For `C=C1C[C@@H](c2nc3cc(OC)ccc3[nH]2)N(C(=O)c2nc(C)sc2-c2ccc(OC)cc2)C1` [Ex. 6.2], the half-maximal inhibitory concentration (IC50) on human orexin-1 receptor worked out at 223 nM; on human orexin-2 receptor it was 17 nM.
In the same order, the values of `C=C1CC(c2nc3c(OC)ccc(OC)c3[nH]2)N(C(=O)c2nc(C3CC3)sc2-c2cccc(C)c2)C1` (stereo not shown) [Ex. 6.98] are 4 nM and 3 nM.
The matching figures for `Cc1nc(C(=O)N2CCC[C@@]2(C)c2nc3c(C)cccc3n2C)c(-c2cccc(Cl)c2)s1` [Ex. 7.5]: 9 nM and 2 nM.
The matching figures for `COc1cc2nc([C@]3(C)CCCN3C(=O)c3cc(Cl)ccc3-n3nccn3)[nH]c2cc1OC` [Ex. 5.64]: 17 nM and 19 nM.
For `COc1cc2nc([C@]3(C)CCCN3C(=O)c3cc(C)ccc3-n3nccn3)n(CCF)c2cc1OC` [Ex. 7.48], the figures for the IC50 at human orexin-1 receptor and at human orexin-2 receptor were 33 nM and 40 nM, respectively.
Regarding `COc1ccc2nc([C@@H]3CCCN3C(=O)c3cnc(C)nc3-c3ccc(Cl)c(Cl)c3)[nH]c2c1` [Ex. 1.28], the half-maximal inhibitory concentration (IC50) at human orexin-1 receptor turned out to be 114 nM; at human orexin-2 receptor, 110 nM.
The matching figures for `Cc1cc2nc([C@]3(C)CCCN3C(=O)c3cc(F)ccc3-n3nccn3)[nH]c2cc1C` [Ex. 5.60]: 156 nM and 54 nM.
For `Cc1cc(C(=O)N2CCC[C@@]2(C)c2nc3c(C)cc(Br)cc3[nH]2)c(-c2ccccc2)cn1` [Ex. 5.310], the IC50 at human orexin-1 receptor amounted to 32 nM; on human orexin-2 receptor, 70 nM.
Take `Cc1cc(C(=O)N2CCC[C@@]2(C)c2nc3cc(C)c(C)cc3[nH]2)c(-n2nccn2)cc1C` [Ex. 5.58]: the results for the 50% inhibitory concentration (IC50) at human orexin-1 receptor and at human orexin-2 receptor were 3 nM and 6 nM, respectively.
As to `C=C1C[C@@H](c2nc3ccc(Cl)c(C)c3[nH]2)N(C(=O)c2c(-n3nccn3)ccc(C)c2F)C1` [Ex. 6.132], the IC50 was 13 nM on human orexin-1 receptor and 4 nM on human orexin-2 receptor.
Consider `C=C1C[C@@H](c2nc3cc(C(C)(C)C)ccc3[nH]2)N(C(=O)c2cc(OC(F)(F)F)ccc2-n2nccn2)C1` [Ex. 6.169], for which the IC50 on human orexin-1 receptor was 344 nM; at human orexin-2 receptor, 479 nM.
On to `CSc1cccc2nc([C@@H]3CCCN3C(=O)c3cnc(C)nc3-c3cccc(Cl)c3)[nH]c12` [Ex. 1.81], for which the IC50 on human orexin-1 receptor was found to be 20 nM; on human orexin-2 receptor it was 116 nM.
In the same order, the values of `COC(=O)c1cccc2nc([C@@H]3[C@@H](C)CCN3C(=O)c3nc(C)sc3-c3cccc(Cl)c3)[nH]c12` [Ex. 4.13] are 26 nM and 4910 nM.
With `COc1ccc(-n2nccn2)c(C(=O)N2CCC[C@@]2(C)c2nc3cc(C)c(C)cc3[nH]2)c1F` [Ex. 5.55], the results for the 50% inhibitory concentration (IC50) on human orexin-1 receptor and on human orexin-2 receptor were 113 nM and 202 nM, respectively.
With `C=C1C[C@@H](c2nc3ccc(Cl)c(C)c3[nH]2)N(C(=O)c2c(-n3nccn3)ccc(OC)c2F)C1` [Ex. 6.133], the concentration for half-maximal inhibition (IC50) is 3 nM at human orexin-1 receptor and 2 nM on human orexin-2 receptor.
On to `COc1cc2nc([C@@H]3[C@@H](C)CCN3C(=O)c3nc(C)sc3-c3cc(F)cc(F)c3)[nH]c2cc1OC` [Ex. 4.52], for which the values for the IC50 at human orexin-1 receptor and on human orexin-2 receptor were 19 nM and 1070 nM, respectively.
On to `Cc1cccc(-c2sc(C)nc2C(=O)N2CC[C@H](C)[C@H]2c2nc3c(C(F)(F)F)cccc3[nH]2)c1` [Ex. 4.158], for which the values for the IC50 at human orexin-1 receptor and at human orexin-2 receptor were 2 nM and 308 nM, respectively.
On to `C=C1CC(c2nc3cc(C(C)(C)C)ccc3[nH]2)N(C(=O)c2nc(C3CC3)sc2-c2cccc(C)c2)C1` (stereo not shown) [Ex. 6.96], for which the IC50 at human orexin-1 receptor came out at 234 nM; at human orexin-2 receptor, 68 nM.
In the same order, the values of `COc1cc(C(=O)N2CCC[C@@]2(C)c2nc3cc(C(F)(F)F)ccc3[nH]2)c(-n2nccn2)cc1OC` [Ex. 5.174] are 59 nM and 133 nM.
Consider `C=C1C[C@@H](c2nc3cc(C)c(C)cc3[nH]2)N(C(=O)c2nc(C)sc2-c2ccc(C)c(C)c2)C1` [Ex. 6.56], for which the figures for the IC50 on human orexin-1 receptor and at human orexin-2 receptor were 6 nM and 1 nM, respectively.
On to `C=C1CC(c2nc3cc(Cl)c(C(F)(F)F)cc3[nH]2)N(C(=O)c2cc(C)sc2-c2ccc(C)c(C)c2)C1` (stereo not shown) [Ex. 6.82], for which the IC50 on human orexin-1 receptor came to 36 nM; on human orexin-2 receptor, 208 nM.
